Measurements as given in patent US12649751B2 (Arcus Biosciences, Inc., priority 2022, dated 2026).

molecular target: HPK1 (Homo sapiens, UniProt Q92918); assay: HPK1 Biochemical Assay (ADP-Glo luminescence; low ATP 10 μM or high ATP 200 μM); settings: 2 nM HPK1, 10 μM ATP; read-out: Biochemical Potency (low ATP)
Sequence (Q92918 whole entry, species assumed): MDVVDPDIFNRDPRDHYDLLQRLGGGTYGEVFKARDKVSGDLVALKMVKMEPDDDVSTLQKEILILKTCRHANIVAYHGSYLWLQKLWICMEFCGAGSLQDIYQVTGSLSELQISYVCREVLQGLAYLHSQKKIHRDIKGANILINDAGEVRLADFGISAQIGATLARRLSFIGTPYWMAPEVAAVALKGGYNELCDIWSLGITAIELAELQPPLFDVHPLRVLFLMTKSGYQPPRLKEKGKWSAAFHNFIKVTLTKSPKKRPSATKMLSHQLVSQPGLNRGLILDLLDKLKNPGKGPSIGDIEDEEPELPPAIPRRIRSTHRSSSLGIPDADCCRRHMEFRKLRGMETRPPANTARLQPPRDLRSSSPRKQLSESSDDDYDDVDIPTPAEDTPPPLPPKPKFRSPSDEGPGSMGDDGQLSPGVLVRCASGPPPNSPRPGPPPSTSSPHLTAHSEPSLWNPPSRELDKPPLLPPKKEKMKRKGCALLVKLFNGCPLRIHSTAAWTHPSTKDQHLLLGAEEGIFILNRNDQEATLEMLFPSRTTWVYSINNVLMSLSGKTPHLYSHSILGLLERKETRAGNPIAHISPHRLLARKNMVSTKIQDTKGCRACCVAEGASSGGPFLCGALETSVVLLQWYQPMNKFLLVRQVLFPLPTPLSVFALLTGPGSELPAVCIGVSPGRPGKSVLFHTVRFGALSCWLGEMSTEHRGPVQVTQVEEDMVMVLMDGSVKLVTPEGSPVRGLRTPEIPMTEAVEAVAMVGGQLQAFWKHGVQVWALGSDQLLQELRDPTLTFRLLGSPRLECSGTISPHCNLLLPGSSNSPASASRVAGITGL

Structure (SMILES)	IC50
Cc1cc(Nc2cc3nc(N4CCC[C@H](O)C4)sc3cn2)nc(O[C@H]2CCNC2)c1 [Example 192, (3S)-1-(6-{[4-Methyl-6-((3S)-pyrrolidin-3-yloxy)pyridin-2-yl]amino}-[1,3]thiazolo[5,4-c]pyridin-2-yl)piperidin-3-ol]	< 100 nM
Cc1cc(Nc2cc3nc(N4CCC[C@@H](O)C4)sc3cn2)nc(O[C@H]2CCNC2)c1 [Example 193, (3R)-1-(6-{[4-Methyl-6-((3S)-pyrrolidin-3-yloxy)pyridin-2-yl]amino}-[1,3]thiazolo[5,4-c]pyridin-2-yl)piperidin-3-ol]	< 100 nM
Cc1ccn(-c2nc3cc(Nc4ccc(N5CCOCC5)c(CN5CCCC5)n4)ncc3s2)n1 [Example 195, N-[2-(3-Methyl-1H-pyrazol-1-yl)-[1,3]thiazolo[5,4-c]pyridin-6-yl]-5-(morpholin-4-yl)-6-[(pyrrolidin-1-yl)methyl]pyridin-2-amine]	< 100 nM
Cc1cc(C)n(-c2nc3cc(Nc4ccc(N5CCOCC5)c(CN5CCCC5)n4)ncc3s2)n1 [Example 196, N-[2-(3,5-Dimethyl-1H-pyrazol-1-yl)-[1,3]thiazolo[5,4-c]pyridin-6-yl]-5-(morpholin-4-yl)-6-[(pyrrolidin-1-yl)methyl]pyridin-2-amine]	< 100 nM
Cc1ccc(Nc2cc3nc(-n4nccc4C)sc3cn2)nc1CN[C@@H]1CCOC1 [Example 199, 5-Methyl-N-[2-(5-methyl-1H-pyrazol-1-yl)-[1,3]thiazolo[5,4-c]pyridin-6-yl]-6-({[(3R)-oxolan-3-yl]amino}methyl)pyridin-2-amine]	< 100 nM
Cc1ccc(Nc2cc3nc(-n4nccc4C)sc3cn2)nc1N1C[C@@H](N)C[C@H]1CO [Example 201, [(2S,4S)-4-Amino-1-(3-methyl-6-{[2-(5-methyl-1H-pyrazol-1-yl)-[1,3]thiazolo[5,4-c]pyridin-6-yl]amino}pyridin-2-yl)pyrrolidin-2-yl]methanol]	< 100 nM
Cc1ccc(Nc2cc3nc(-n4nccc4C)sc3cn2)nc1N1CC[C@H](O)C1 [Example 202, (3S)-1-(3-Methyl-6-{[2-(5-methyl-1H-pyrazol-1-yl)-[1,3]thiazolo[5,4-c]pyridin-6-yl]amino}pyridin-2-yl)pyrrolidin-3-ol]	100 to 1000 nM
Cc1ccc(Nc2cc3nc(-n4nccc4C)sc3cn2)nc1N1CCN(CCO)CC1 [Example 203, 2-[4-(3-Methyl-6-{[2-(5-methyl-1H-pyrazol-1-yl)-[1,3]thiazolo[5,4-c]pyridin-6-yl]amino}pyridin-2-yl)piperazin-1-yl]ethan-1-ol]	100 to 1000 nM
Cc1ccc(Nc2cc3nc(-n4nccc4C)sc3cn2)nc1N1CCNCC1 [Example 204, 5-Methyl-N-[2-(5-methyl-1H-pyrazol-1-yl)-[1,3]thiazolo[5,4-c]pyridin-6-yl]-6-(piperazin-1-yl)pyridin-2-amine]	< 100 nM

Second part, the compound after the results:

IC50	Structure (SMILES)
< 100 nM	Cc1cc(Nc2cc3nc(-c4ccc(F)cc4)sc3cn2)nc(O[C@H]2CCNC2)c1 [Example 188, N-[2-(4-Fluorophenyl)-[1,3]thiazolo[5,4-c]pyridin-6-yl]-4-methyl-6-[(3S)-pyrrolidin-3-yloxy]pyridin-2-amine]
< 100 nM	Cc1cc(Nc2cc3nc(N4CCC(O)CC4)sc3cn2)nc(O[C@H]2CCNC2)c1 [Example 189, 1-(6-{[4-Methyl-6-((3S)-pyrrolidin-3-yloxy)pyridin-2-yl]amino}-[1,3]thiazolo[5,4-c]pyridin-2-yl)piperidin-4-ol]
< 100 nM	COC1CCN(c2nc3cc(Nc4cc(C)cc(O[C@H]5CCNC5)n4)ncc3s2)CC1 [Example 190, N-[2-(4-Methoxypiperidin-1-yl)-[1,3]thiazolo[5,4-c]pyridin-6-yl]-4-methyl-6-((3S)-pyrrolidin-3-yloxy)pyridin-2-amine]
< 100 nM	Cc1cc(Nc2cc3nc(N4CCOCC4)sc3cn2)nc(O[C@H]2CCNC2)c1 [Example 191, 4-Methyl-N-[2-(morpholin-4-yl)-[1,3]thiazolo[5,4-c]pyridin-6-yl]-6-((3S)-pyrrolidin-3-yloxy)pyridin-2-amine]
